± gives the uncertainty stated by the source.
Assays:
Settings in all cases: 18 h
[1] = system: HEK293T-Rex ERSE-FLuc; assay: EC50 for ERSE-FLuc reporter activation
Description: (§1)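 Dose-response of hit compounds in HEK293T-Rex cells stably expressing ERSE-FLuc or XBP1-RLuc reporters, 18 hr treatment, 1536-well; luminescence normalised to 500 nM thapsigargin (100%) and DMSO (0%), fitted to give EC50 (M) and maximal activation; '>' marks EC50 above the top tested dose (~17 µM).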

[2] = system: HEK293T-Rex XBP1-RLuc; assay: EC50 for XBP1-RLuc reporter activation
Description: as §1

[3] = system: HEK293T-Rex ERSE-FLuc; assay: maximal ERSE-FLuc activation from dose-response fit, relative to thapsigargin (% of thapsigargin); higher = stronger activation
Description: as §1

[4] = system: HEK293T-Rex XBP1-RLuc; assay: maximal XBP1-RLuc activation from dose-response fit, relative to thapsigargin (% of thapsigargin); higher = stronger activation
Description: as §1

Compound	EC50 for ERSE-FLuc reporter activation [1] [µM]	EC50 for XBP1-RLuc reporter activation [2] [µM]	maximal ERSE-FLuc activation [3]	maximal XBP1-RLuc activation [4]
N#C/C(=C/c1ccc(O)c(O)c1)c1nc2ccccc2[nH]1	> 16.9	> 16.9	29 ± 5.2	20.7 ± 5.2
COc1cccc(C2=NOC(C(=O)Nc3cc(C)ccc3O)C2)c1 (stereo not drawn)	7.27	> 16.9	92.8 ± 22	35.1 ± 3
Cc1ccn2cc(-c3ccc(O)c(O)c3)nc2c1	> 20.3	11.9	25.3 ± 5.2	70.3 ± 12
CCn1c(/C(C#N)=C/c2ccc(OC)cc2)nc2ccccc21	> 19.4	> 19.4	30.6 ± 6.3	5.17 ± 3
N#Cc1c(NC(=O)c2ccc3ncsc3c2)sc2c1CCC2	> 16.6	> 16.6	22.2 ± 2.5	4.53 ± 1.1
O=C(N/N=C/c1ccc(O)c(O)c1)c1cccc(Cl)c1	13.6	> 16.9	69.2 ± 4.9	29.3 ± 2.4
O=C(N/N=C/c1ccc2c(c1)OCO2)c1cccc(F)c1	> 16.9	> 16.9	20.8 ± 5.2	5.7 ± 0.65
Cc1nc(-c2ccc(C(=O)Nc3ccc(O)cc3)cc2)cs1	> 16.9	12.9	27.7 ± 1.8	65.5 ± 3.6
Cn1c(-c2cccc(Cl)c2)cnc1NC(=O)c1ccccc1	> 16.9	> 16.9	23.6 ± 2.5	8.33 ± 5.9
Cc1ccc(C(=O)Nc2ccccc2N)cc1	4.27	> 14.7	137 ± 15	42.2 ± 2.2
Cc1ccc(-c2csc(Nc3ccc(O)cc3)n2)cc1	> 16.9	8.04	40.9 ± 7.5	127 ± 1.4
Nc1nc(Nc2ccccc2)cc(-c2ccccc2)n1	> 17.2	> 17.2	25.8 ± 9.6	3.36 ± 1.2
O=C(N/N=C\C(Br)=C\c1ccccc1)c1n[nH]c2c1CCCC2	> 16.9	> 16.9	17.2 ± 4.7	9.49 ± 5.7
O=c1cc(-c2ccc(O)c(O)c2)oc2ccccc12	> 17.1	> 17.1	32.7 ± 5	43.9 ± 0.95
N/C(=N\N=C\c1ccc(O)c(O)c1)c1nonc1N	5.38	> 16.9	96.9 ± 3.7	41.6 ± 6.1
Cc1ccc(C)c(/C=N/Nc2nncc3ccccc23)c1	> 17.1	> 17.1	26.4 ± 5.4	8.33 ± 1.1
c1ccc2cc(-c3cnnc(N4CCOCC4)n3)ccc2c1	> 16.9	> 16.9	25.2 ± 10	4.15 ± 2.7
COC(=O)c1ccc2c(COC(C)=O)c(OC(C)=O)ccc2c1COC(C)=O	14.7	> 16.9	70.9 ± 16	19.2 ± 4.8
CCOc1cc(/C=C2/NC(=O)N(c3cccc(Cl)c3)C2=O)ccc1O	> 16.9	11.9	47.5 ± 4.4	61.4 ± 9.7
Cc1ccc(O)c(NC(=O)c2cc(C3CC3)on2)c1	2.02	> 16.9	91.7 ± 12	23.7 ± 1.1
CCCCCCOc1ccc(/C(C)=N/NC2=NCCN2)cc1[N+](=O)[O-]	> 16.9	> 16.9	34.7 ± 1.6	16.3 ± 1.6
Oc1ccc(-c2cnc3c(Nc4ccc5[nH]ccc5c4)nccn23)cc1	> 16.9	> 16.9	21.4 ± 3.8	37.8 ± 9.5

Reference: the supplement of paper PMC4954754
